In this test the test system is Normal human epidermal melanocytes, lightly pigmented. The test can be described thus: Melanin inhibition in L-tyrosine-stimulated melanocytes (melanogenese assay). Type of test: cell-based. The note with it: L-tyrosine 1 mM, 240 hours incubation, inhibition compared to stimulated control. As to the method:
Melanocytes (Normal human epidermal melanocytes, lightly pigmented, 8th passage) were seeded in 24 well plates and cultured for 24 hours in culture medium (M254 supplemented with PMA free HMGS-2, Insulin 5 μg/ml, Penicilline 50 U/ml-Streptomycine 50 μg/ml Gentamycine 25 μg/ml) at 37° C., 5% CO2. The medium was then replaced by culture medium containing the test compounds or the reference (lipoic acid at 5 μg/ml) in presence of L-tyrosine (1 mM). The cells were then incubated for 240 hours with 2 renewals of culture medium containing the test compounds or the reference in presence of L-tyrosine after 96 and 168 hours of incubation. A non-stimulated and a stimulated control were performed in parallel. All experimental conditions were performed in n=3, except for control conditions in n=6. At the end of incubation, the culture supernatants were removed and the melanin was extracted by cell lysis using a 0.5 N NaOH solution. The optical density (OD) of each experimental point was measured at 405 nm and melanin quantity was calculated using melanin standards (standard curve from 0.39 to 100 μg/ml melanin). Results were expressed in μg/ml of melanin and in percentage of inhibition compared to stimulated control.

The source of these data is patent US10836791B2, “Compounds” (DSM IP ASSETS B.V., priority 2016, dated 2020).

Square brackets hold non-standard residues; d marks the D form. * marks the point of attachment. Palmitoyl = CCCCCCCCCCCCCCCC(=O)*; Octanoyl = CCCCCCCC(=O)*; Hexanoyl = CCCCCC(=O)*

Consider Octanoyl-[dW]-Arg-Leu-NH2 [Ref-4], for which the “Melanin inhibition [%]” value (1 μM test compound) is listed as 13%.
The same measure, in the same setting: next, Palmitoyl-D-Trp-NLe-Leu-NH2 [Ref-3]: 13%.
For H-[dW]-Arg-Leu-NH2 [Ref-5], the “Melanin inhibition [%]” value is listed as −3% (1 μM test compound) and 14% (10 μM test compound).
On the same counts, the results for Palmitoyl-D-Trp-Arg-ATMPA-NH2 [Ref-6] are −3% and −12%.
Palmitoyl-[dW]-Met-Leu-NH2 [Ref-1]: the “Melanin inhibition [%]” value came to 25% (1 μM test compound) and 43% (10 μM test compound).
On to Hexanoyl-[dW]-Arg-Leu-NH2 [Ref-2], for which the “Melanin inhibition [%]” value worked out at 18% (1 μM test compound) and 8% (10 μM test compound).
